Tests used:
Settings in all cases: incubation time: 72 h
MFM-223 = assay: normalised response (% of control), CellTiter-Glo; higher = more viable cells (100 = DMSO, 0 = benzethonium chloride kill control)
Summary of the method: (§1)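 Two readouts were taken after 72 h: CellTox Green fluorescence (485/520 nm) first, then CellTiter-Glo luminescence after 10 min at room temperature. Breast cancer cell lines had been seeded as 20 µl suspension into 384-well plates holding compound at 5 concentrations in 10-fold steps across a compound-specific 10,000-fold range. Each value is a normalised signal at a single concentration, with plates scaled to 0.1 % DMSO (100) and a positive kill control (0).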

DU-4475 [1] = assay: as above
Summary of the method: as §1

MDA-MB-436 = assay: as above
Summary of the method: as §1

HDQ-P1 [2] = assay: as above
Summary of the method: as §1

BT-474 = assay: as above
Summary of the method: as §1

HCC1599 = assay: as above
Summary of the method: as §1

Hs578T = assay: as above
Summary of the method: as §1

BT-549 = assay: as above
Summary of the method: as §1

MDA-MB-468 = assay: as above
Summary of the method: as §1

CAL-120 = assay: as above
Summary of the method: as §1

CAL-148 [3] = assay: as above
Summary of the method: as §1

MCF-10A = assay: as above
Summary of the method: as §1

DU-4475 [4] = assay: normalised viability (% of control), CellTiter-Blue; higher = more viable cells (about 100 = DMSO control)
Experimental: (§2)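 DSRT, CellTiter-Blue viability, 72 h incubation. Signal is normalised to DMSO and benzethonium chloride controls. Value is the normalised response at dose 7.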

CAL-51 = assay: as above
Experimental: as §2

CAL-85-1 = assay: as above
Experimental: as §2

HDQ-P1 [5] = assay: as above
Experimental: as §2

CAL-148 [6] = assay: as above
Experimental: as §2

MDA-MB-453 = assay: as above
Experimental: as §2

SMILES | normalised response (MFM-223) [%] | normalised response (DU-4475 [1]) [%] | normalised response (MDA-MB-436) [%] | normalised response (HDQ-P1 [2]) [%] | normalised response (BT-474) [%] | normalised response (HCC1599) [%] | normalised response (Hs578T) [%] | normalised response (BT-549) [%] | normalised response (MDA-MB-468) [%] | normalised response (CAL-120) [%] | normalised response (CAL-148 [3]) [%] | normalised response (MCF-10A) [%] | normalised viability (DU-4475 [4]) [%] | normalised viability (CAL-51) [%] | normalised viability (CAL-85-1) [%] | normalised viability (HDQ-P1 [5]) [%] | normalised viability (CAL-148 [6]) [%] | normalised viability (MDA-MB-453) [%]
C[C@@H]1C=C2C(=O)O[C@@H]3CC[C@H](C1)[C@]23O [Galiellalactone] (5000 nM) | 104 | 102 | 106 | 100 | 99.3 | 98.4 | 111 | 97.6 | 82 | 103 | 110 | 105 | 118 | 105 | 72.6 | 98 | 147 | 73.7
COC1=C2C[C@@H](C)C[C@H](OC)[C@H](O)[C@@H](C)/C=C(\C)[C@H](OC(N)=O)[C@@H](OC)/C=C\C=C(/C)C(=O)NC(=CC1=O)C2=O [Geldanamycin] (1000 nM) | 40.4 | 91.4 | 64.4 | 97.2 | 101 | 99.6 | 103 | 81.2 | 104 | 102 | 106 | 99.7 | 0.05 | 26.2 | 23.7 | 17.8 | 14.5 | 7.25
Cn1cnc2c(F)c(Nc3ccc(Br)cc3F)c(C(=O)NOCCO)cc21 [MEK-162] (100 nM) | 102 | 42.6 | 100 | 71.4 | 88.8 | 104 | 86.2 | 100 | 94.7 | 94 | 91.1 | 49 | 25.7 | 101 | 82.1 | 107 | 98.8 | 112
CCOc1cc2ncc(C#N)c(Nc3ccc(OCc4ccccn4)c(Cl)c3)c2cc1NC(=O)/C=C/CN(C)C [Neratinib] (100 nM) | 101 | 101 | 95 | 69.8 | 102 | 102 | 103 | 97.5 | 82.8 | 99 | 83.4 | 43.1 | 102 | 92.6 | 94.9 | 120 | 101 | 76
COc1ccc(C2=N[C@@H](c3ccc(Cl)cc3)[C@@H](c3ccc(Cl)cc3)N2C(=O)N2CCNC(=O)C2)c(OC(C)C)c1 [Nutlin-3] (1000 nM) | 104 | 96.5 | 110 | 105 | 98.9 | 117 | 106 | 100 | 99.9 | 93.6 | 101 | 102 | 94.7 | 95.8 | 88.9 | 119 | 91.6 | 97.2
COC1=CC(c2cc3ccccc3[nH]2)=N/C1=C\c1[nH]c(C)cc1C [Obatoclax] (1000 nM) | 93.7 | 89.7 | 89.7 | 97 | 65.4 | 97.1 | 91.7 | 77.3 | 83 | 94.2 | 81.5 | 92.8 | 78.4 | 72.3 | 57.5 | 41.6 | 78.3 | 34
CC(=O)O[C@H]1C(=O)[C@@]2(C)[C@H]([C@H](OC(=O)c3ccccc3)[C@]3(O)C[C@H](OC(=O)[C@H](O)[C@@H](NC(=O)c4ccccc4)c4ccccc4)C(C)=C1C3(C)C)[C@]1(OC(C)=O)CO[C@@H]1C[C@@H]2O [Paclitaxel] (100 nM) | 38.2 | 51.5 | 28.1 | 60.4 | 36.7 | 36.2 | 11.4 | 15 | 21.7 | 47.7 | 39.6 | 33.5 | 27.3 | 23.4 | 31.8 | 33 | 20.8 | 24.8
CC(C)(C)c1cc(NC(=O)Nc2ccc(-c3cn4c(n3)sc3cc(OCCN5CCOCC5)ccc34)cc2)no1 [Quizartinib] (100 nM) | 109 | 104 | 111 | 100 | 108 | 111 | 98.5 | 106 | 113 | 106 | 100 | 105 | 115 | 114 | 89.6 | 95 | 98.8 | 96.6
O=C(c1ccc(OCCN2CCCCC2)cc1)c1c(-c2ccc(O)cc2)sc2cc(O)ccc12 [Raloxifene] (1000 nM) | 95.6 | 103 | 103 | 100 | 102 | 99.8 | 107 | 102 | 92.6 | 96.3 | 103 | 108 | 86.2 | 91.5 | 101 | 81.3 | 112 | 97.1
Cn1c(=O)c(F)c(Nc2ccc(I)cc2F)c2c(=O)n(C[C@@H](O)CO)cnc21 [TAK-733] (100 nM) | 98.8 | 1.33 | 97.1 | 66.3 | 67.2 | 93 | 96.5 | 91.6 | 79.6 | 76.7 | 90.4 | 38.8 | 0.99 | 77.7 | 60.2 | 92 | 95 | 89.1
